In PMC10584170, “Machine learning-based phenotypic imaging to characterise the targetable biology of Plasmodium falciparum male gametocytes for the development of transmission-blocking antimalarials” (PLOS Pathogens, 2023):
Read-outs that look alike come from different tables or passages of the source.

Key:
[1] = test system: P. falciparum female gametocytes; set-up: method as in Miguel-Blanco et al 2017; details: ref Miguel-Blanco et al 2017; read-out: Pf female gametogenesis FGAA IC50; cited from earlier work
[2] = test system: P. falciparum female gametocytes; assay: P. falciparum Female Gametocyte Activation Assay (PfFGAA); format: cell-based, Plasmodium falciparum; details: Mean TOX HepG2 over FGAA IC50; GREEN = >10-fold; RED = <10-fold
Excerpt: Fig 1 The activity of TCAMS compound identified in the Pf DGFA screen. (A) 85 molecules were confirmed active in the Pf DGFA. 58 were previously identified in one or more transmission-blocking screens. […] No molecule was identified with >4.7-fold greater activity against female gametocytes. Abbreviations (IC50 = concentration giving 50% inhibition, PbODA = P. berghei Ookinete Development Assay, PfDGFA = P. falciparum Dual Gamete Formation Assay, PfFGAA = P. falciparum Female Gametocyte Activation Assay, PfGCT = P. falciparum Gametocyte Viability ATP Assay).

[3] = test system: HepG2 cells; assay: HepG2 cytotoxicity counter-screen; details: for Mean TOX: mean of the HepG2 TOX50 values; for Tox50: cytotoxic activity against HepG2 cells
[4] = test system: P. falciparum male gametocytes; assay: P. falciparum Dual Gamete Formation Assay (PfDGFA), male readout (exflagellation); format: cell-based, Plasmodium falciparum NF54; details: for Selectivity Ratio M: HepG2 Tox50 versus male IC50; for inhibition at 2 µM / Average inhibition male (%) / % inhibition male (individual replicates) R1 / % inhibition male (individual replicates) R3 / % inhibition male (individual replicates) R4: 24h preincubation with gametocytes
How it was run: (§1)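 Male and female gamete formation were quantified by microscopy image analysis following 24 h incubation of mature NF54 gametocytes with compound and activation at 28°C with xanthurenic acid.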

[5] = test system: HepG2 cells; details: cited from earlier work
[6] = test system: P. falciparum female gametocytes; assay: P. falciparum Dual Gamete Formation Assay (PfDGFA), female readout (Pfs25-positive female gametes); format: cell-based, Plasmodium falciparum NF54; details: for Selectivity ratio F: HepG2 Tox50 versus female IC50; for inhibition at 2 µM / Average inhibition female (%) / % inhibition female (individual replicates) R1 / % inhibition female (individual replicates) R3 / % inhibition female (individual replicates) R4: 24h preincubation with gametocytes
How it was run: as §1

[7] = this study, read-out: Pf DGFA IC50 MALE
[8] = this study, read-out: Pf DGFA IC50 FEM
[9] = Plasmodium falciparum, 2µM, average of replicates, read-out: Average inhibition male (%)
[10] = Plasmodium falciparum, 2µM, replicate R1, read-out: % inhibition male (individual replicates) R1
[11] = Plasmodium falciparum, 2µM, replicate R2, read-out: % inhibition male (individual replicates) R2
[12] = Plasmodium falciparum, 2µM, replicate R4, read-out: % inhibition male (individual replicates) R4
[13] = Plasmodium falciparum, PfDGFA, 24 h incubation with gametocytes before induction, exflagellation readout, read-out: Male IC50
[14] = Plasmodium falciparum, 2µM, average of replicates, read-out: Average inhibition female (%)
[15] = Plasmodium falciparum, 2µM, replicate R1, read-out: % inhibition female (individual replicates) R1
[16] = Plasmodium falciparum, 2µM, replicate R2, read-out: % inhibition female (individual replicates) R2
[17] = Plasmodium falciparum, 2µM, replicate R3, read-out: % inhibition female (individual replicates) R3
[18] = Plasmodium falciparum, 2µM, replicate R4, read-out: % inhibition female (individual replicates) R4
[19] = Plasmodium falciparum, PfDGFA, 24 h incubation with gametocytes before induction, female gamete readout, read-out: Female IC50
[20] = Plasmodium falciparum, 2µM, replicate R3, read-out: % inhibition male (individual replicates) R3
[21] = PfDGFA, 24 h incubation with gametocytes before induction, exflagellation readout, read-out: Male IC50
[22] = PfDGFA, 24 h incubation with gametocytes before induction, female gamete readout, read-out: Female IC50
[23] = PfDGFA at 2µM, average of replicates

| SMILES | IC50 [1] [µM] | Cytotox ratio Pf FGAA [2] | Mean TOX [3] [µM] | Cytotox ratio Pf Male [4] | IC50 [4, 7] [µM] | FGAA TOX50 HepG2 [5] [µM] | Tox50 [3] [µM] | Selectivity Ratio M [4] | inhibition at 2 µM [4, 9] [%] | inhibition at 2 µM [4, 10] [%] | inhibition at 2 µM [4, 11] [%] | inhibition at 2 µM [4, 12] [%] | IC50 [4, 13] [µM] | Selectivity ratio F [6] | inhibition at 2 µM [6, 14] [%] | inhibition at 2 µM [6, 15] [%] | inhibition at 2 µM [6, 16] [%] | inhibition at 2 µM [6, 17] [%] | inhibition at 2 µM [6, 18] [%] | IC50 [6, 19] [µM] | also measured |
| --- | --- | --- | --- | --- | --- | --- | --- | --- | --- | --- | --- | --- | --- | --- | --- | --- | --- | --- | --- | --- | --- |
| Cc1ccc(C(C(=O)Nc2ccc(N3CCNCC3)c(Cl)c2)c2ccccc2)cc1 (stereo not shown) [TC10] | 0.66 | 17.6 | 11.61 | 27.6 | 0.42 | 11.89 | – | – | – | – | – | – | – | – | – | – | – | – | – | – | Cytotox ratio Pf Female [6]: 1.2 |
| CCc1cc2c(Sc3nnc(N)s3)ncnc2s1 [TC12] | 0.73 | 63.9 | 46.65 | 47.6 | 0.98 | 32.3 | – | – | – | – | – | – | – | – | – | – | – | – | – | – | Cytotox ratio Pf Female [6]: 63.0; IC50 [6, 8]: 0.74 µM |
| FC(F)(F)c1ccc2[nH]c(-c3ccc(-c4ccc(CNCCN5CCNCC5)cc4)cc3)nc2c1.O=C(O)C(F)(F)F [TC40] | 1.41 | 10.7 | 15.09 | 10.3 | 1.46 | 16.43 | – | – | – | – | – | – | – | – | – | – | – | – | – | – | Cytotox ratio Pf Female [6]: 2.5; IC50 [6, 8]: 6.08 µM |
| O=C1Nc2ccccc2C1=NNC(=S)N1CCOCC1 [TC50] | 0.24 | 192.9 | 46.30 | 22.9 | 2.02 | – | – | – | – | – | – | – | – | – | – | – | – | – | – | – | DGFA Tox50 HepG2 ([3]; HepG2 value reported with the DGFA screen): 46.3 µM; Cytotox ratio Pf Female [6]: 26.0; IC50 [6, 8]: 1.78 µM |
| CC(C)(CN)c1nc(-c2ccc(Cl)c(O)c2)c(-c2ccncc2)[nH]1.Cl [TC61] | 0.94 | – | 7.15 | – | 0.91 | 2.16 | – | – | – | – | – | – | – | – | – | – | – | – | – | – | ODA TOX50 HepG2 [5]: 1.66 µM; IC50 [6, 8]: 0.27 µM |
| Cc1ccc(C)c(S(=O)(=O)NCC2CCN(Cc3ccc(O)cc3)CC2)c1.O=C(O)C(F)(F)F [TCMDC-141802] | – | – | – | – | – | – | 81.55 | 54.73 | 95.1 | 95.4 | 96.3 | 93.6 | 1.49 | 8.16 | 41.1 | 46.9 | 46.3 | 38 | 33.3 | > 10 | – |
| O=C(O)CCSSc1cccc[n+]1[O-] [TCMDC-141973] | – | – | – | – | – | – | 30.9 | 128.35 | 97.3 | 98.9 | 96.8 | 92.9 | 0.24 | 117.36 | 42.8 | 28.9 | 62.6 | 43.7 | 35.9 | 0.26 | inhibition at 2 µM [4, 20]: 100% |
| Nc1nc(N)c2cc(NC(=O)c3ccc(Cl)c(Cl)c3)ccc2n1 [TCMDC-141982] | – | – | – | – | – | – | 2.38 | 2.06 | – | – | – | – | – | 1.06 | – | – | – | – | – | – | Average inhibition male (%) ([4]; 2µM, average of replicates): 98.2%; % inhibition male (individual replicates) R1 ([4]; 2µM, replicate R1): 97.3%; % inhibition male (individual replicates) R3 ([4]; 2µM, replicate R3): 98.4%; % inhibition male (individual replicates) R4 ([4]; 2µM, replicate R4): 100.2%; IC50 [4, 21]: 1.15 µM; Average inhibition female (%) ([6]; 2µM, average of replicates): 81.8%; % inhibition female (individual replicates) R1 ([6]; 2µM, replicate R1): 88.2%; % inhibition female (individual replicates) R3 ([6]; 2µM, replicate R3): 90.4%; % inhibition female (individual replicates) R4 ([6]; 2µM, replicate R4): 80.2%; IC50 [6, 22]: 2.25 µM |
| Cl.OC(CNCCCCCCNCC(O)c1ccc(Cl)c(Cl)c1)c1ccc(Cl)c(Cl)c1 (stereo not shown) [TCMDC-141987] | – | – | – | – | – | – | 6.33 | 3.57 | – | – | – | – | – | 1.28 | – | – | – | – | – | – | Average inhibition male (%) [4, 23]: 88.7%; % inhibition male (individual replicates) R1 ([4]; PfDGFA at 2µM, replicate R1): 92.2%; % inhibition male (individual replicates) R3 ([4]; PfDGFA at 2µM, replicate R3): 63.5%; % inhibition male (individual replicates) R4 ([4]; PfDGFA at 2µM, replicate R4): 102.2%; IC50 [4, 21]: 1.77 µM; HitlevelM ([4]; number of replicates with >50% inhibition in the male readout, 2µM): 4; Average inhibition female (%) [6, 23]: 52.4%; % inhibition female (individual replicates) R1 ([6]; PfDGFA at 2µM, replicate R1): 44.0%; % inhibition female (individual replicates) R3 ([6]; PfDGFA at 2µM, replicate R3): 21.3%; % inhibition female (individual replicates) R4 ([6]; PfDGFA at 2µM, replicate R4): 69.1%; IC50 [6, 22]: 4.93 µM; HitlevelF ([6]; number of replicates with >50% inhibition in the female readout, 2µM): 2 |
| O=c1c(Br)ccccc1Br [TCMDC-142246] | – | – | – | – | – | – | 6.95 | 47.29 | 98.7 | 98.2 | 102 | 99.6 | 0.15 | 63.16 | 96.5 | 93.6 | 94.7 | 103 | 94.9 | 0.11 | inhibition at 2 µM [4, 20]: 94.6% |
| Nc1cc(C=Cc2ccc([N+](=O)[O-])o2)nc2ccccc12 [TCMDC-142295] | – | – | – | – | – | – | 2.6 | 16.74 | 98.9 | 98.2 | 98.8 | 100 | 0.16 | 6.49 | 93.7 | 96.4 | 95.7 | 93.8 | 88.9 | 0.4 | inhibition at 2 µM [4, 20]: 98.4% |
| Nc1cc(C=Cc2ccc([N+](=O)[O-])s2)nc2ccccc12 [TCMDC-142296] | – | – | – | – | – | – | 1.76 | 5.37 | 100 | 99.9 | 101 | 102 | 0.33 | 1.71 | 80.5 | 71.6 | 88.4 | 72.1 | 89.8 | 1.03 | inhibition at 2 µM [4, 20]: 97.4% |
